Reference: US11420966B2 (ACLARIS THERAPEUTICS, INC., priority 2019, dated 2022)

What was measured:
JAK3 (a.a. 781-1124) = JAK3 (a.a. 781-1124) (Homo sapiens (Human), UniProt P52333); assay: JAK3 enzyme activity assay (SRCtide phosphorylation, Caliper); type: biochemical; conditions: 1 uM ATP; read-out: JAK3 Inhibition IC50
[1] = test system: IL-2 stimulated STAT5 phosphorylation on Tyr694 (JAK1/3); assay: JAK1/3 cellular target modulation: IL-2 stimulated phospho-STAT5 in PBMC; type: cell-based; conditions: human PBMC, IL-2 25 ng/ml; read-out: IL2-STAT5 IC50
Outline: (§1)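 Thawed human PBMC (200,000/well, RPMI/10% FBS) were preincubated with compound for 1 h at 37 °C, added from 10× stocks in 1% DMSO. Stimulation and read-out: IL-2 25 ng/ml, 5 min, pSTAT5 by MSD; IL-12 1.7 ng/ml, 25 min, pSTAT4 by MSD; IFNγ 10 ng/ml, 10 min, pSTAT1 by sandwich ELISA.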

JAK1 = JAK1 (Homo sapiens (Human), UniProt P23458); assay: JAK1 enzyme activity assay (Thermo Fisher SelectScreen, Z-lyte); type: biochemical; conditions: read-out: JAK1 Inhibition IC50
Outline: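 Z-lyte assay with 21.2-91.5 ng JAK and […] Tyr 06 in 50 mM HEPES pH 7.0, 10 mM MgCl2, 1 mM EGTA, 0.01% BRIJ-35; 1 h kinase reaction, then development reagent. 11-point dose-response from […] to 0.34 nM, 2% DMSO vehicle; IC50 from 4-parameter logistic fit of emission ratio.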

JAK2 = JAK2 (Homo sapiens (Human), UniProt O60674); assay: JAK2 enzyme activity assay (Thermo Fisher SelectScreen, Z-lyte); type: biochemical; conditions: read-out: JAK2 Inhibition IC50
Outline: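 Z-lyte FRET kinase assay: 0.12-0.5 ng JAK2 with […] Tyr 06 peptide in 50 mM HEPES pH 7.5, 0.01% BRIJ-35, 10 mM MgCl2, 1 mM EGTA, 1 h reaction before development reagent. 11-point dose-response from […] to 0.34 nM, 2% DMSO; IC50 from 4-parameter fit of emission ratio.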

[2] = test system: IFNγ stimulated STAT1 phosphorylation on Tyr701 (JAK1/2); assay: JAK1/2 cellular target modulation: IFNγ stimulated phospho-STAT1 in PBMC; type: cell-based; conditions: human PBMC, IFNγ 10 ng/ml; read-out: Infγ-STAT1 IC50
Outline: as §1

[3] = test system: IL-12 stimulated STAT4 phosphorylation on Tyr693 (JAK2/TYK2); assay: JAK2/TYK2 cellular target modulation: IL-12 stimulated phospho-STAT4 in PBMC; type: cell-based; conditions: human PBMC, IL-12 1.7 ng/ml; read-out: IL12-STAT4 IC50
Outline: as §1

Tyk-2 = Tyk-2 (Homo sapiens (Human), UniProt P29597); assay: Tyk-2 enzyme activity assay (Thermo Fisher SelectScreen, Z-lyte); type: biochemical; conditions: read-out: Tyk-2 Inhibition IC50
Outline: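 Z-lyte FRET assay: 3.75–15 ng TYK2 with […] Tyr 03 peptide in HEPES pH 7.0, MgCl2, EGTA, BRIJ-35; 1 h reaction, then development reagent. 11-point dose-response, 2% DMSO; IC50 via 4-parameter fit of emission ratio, background without enzyme.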

Sequence of JAK1 (P23458 whole entry): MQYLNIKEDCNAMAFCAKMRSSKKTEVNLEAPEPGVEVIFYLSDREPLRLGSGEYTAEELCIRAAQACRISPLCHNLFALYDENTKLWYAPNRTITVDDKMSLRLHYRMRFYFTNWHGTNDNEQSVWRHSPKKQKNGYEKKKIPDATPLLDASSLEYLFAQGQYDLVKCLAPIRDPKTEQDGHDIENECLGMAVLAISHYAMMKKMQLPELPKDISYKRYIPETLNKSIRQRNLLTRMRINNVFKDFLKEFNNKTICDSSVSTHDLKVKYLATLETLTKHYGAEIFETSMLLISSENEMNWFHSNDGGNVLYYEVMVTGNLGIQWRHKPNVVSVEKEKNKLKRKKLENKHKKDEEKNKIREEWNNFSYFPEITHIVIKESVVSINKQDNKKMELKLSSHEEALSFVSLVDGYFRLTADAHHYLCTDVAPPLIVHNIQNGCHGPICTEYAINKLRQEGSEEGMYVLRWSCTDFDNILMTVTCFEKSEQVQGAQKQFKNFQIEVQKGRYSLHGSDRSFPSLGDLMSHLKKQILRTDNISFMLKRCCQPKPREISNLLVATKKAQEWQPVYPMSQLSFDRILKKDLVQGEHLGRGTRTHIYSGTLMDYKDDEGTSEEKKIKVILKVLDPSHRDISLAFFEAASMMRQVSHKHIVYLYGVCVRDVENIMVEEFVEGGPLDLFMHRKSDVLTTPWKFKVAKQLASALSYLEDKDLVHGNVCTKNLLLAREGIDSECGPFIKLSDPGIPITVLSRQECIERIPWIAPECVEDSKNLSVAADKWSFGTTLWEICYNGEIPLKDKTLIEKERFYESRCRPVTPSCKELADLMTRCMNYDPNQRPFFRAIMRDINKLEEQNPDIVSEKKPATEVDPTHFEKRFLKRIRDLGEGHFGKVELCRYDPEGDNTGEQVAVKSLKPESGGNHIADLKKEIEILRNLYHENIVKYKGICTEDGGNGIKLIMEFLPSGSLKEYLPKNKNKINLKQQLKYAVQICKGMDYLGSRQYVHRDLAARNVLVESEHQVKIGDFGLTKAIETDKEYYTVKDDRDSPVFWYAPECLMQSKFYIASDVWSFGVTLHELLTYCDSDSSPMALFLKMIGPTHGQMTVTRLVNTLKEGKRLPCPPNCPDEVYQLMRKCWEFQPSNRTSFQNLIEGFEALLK
Sequence of JAK3 (a.a. 781-1124) (P52333 781-1124): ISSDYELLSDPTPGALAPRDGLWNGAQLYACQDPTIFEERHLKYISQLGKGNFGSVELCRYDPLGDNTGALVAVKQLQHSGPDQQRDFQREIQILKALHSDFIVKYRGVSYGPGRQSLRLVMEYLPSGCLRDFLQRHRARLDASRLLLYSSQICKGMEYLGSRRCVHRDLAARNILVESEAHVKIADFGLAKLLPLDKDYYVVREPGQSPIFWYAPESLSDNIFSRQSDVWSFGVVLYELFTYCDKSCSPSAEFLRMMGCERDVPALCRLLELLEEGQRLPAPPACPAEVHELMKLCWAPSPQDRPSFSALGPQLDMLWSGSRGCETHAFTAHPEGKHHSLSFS
Sequence of JAK2 (O60674 whole entry): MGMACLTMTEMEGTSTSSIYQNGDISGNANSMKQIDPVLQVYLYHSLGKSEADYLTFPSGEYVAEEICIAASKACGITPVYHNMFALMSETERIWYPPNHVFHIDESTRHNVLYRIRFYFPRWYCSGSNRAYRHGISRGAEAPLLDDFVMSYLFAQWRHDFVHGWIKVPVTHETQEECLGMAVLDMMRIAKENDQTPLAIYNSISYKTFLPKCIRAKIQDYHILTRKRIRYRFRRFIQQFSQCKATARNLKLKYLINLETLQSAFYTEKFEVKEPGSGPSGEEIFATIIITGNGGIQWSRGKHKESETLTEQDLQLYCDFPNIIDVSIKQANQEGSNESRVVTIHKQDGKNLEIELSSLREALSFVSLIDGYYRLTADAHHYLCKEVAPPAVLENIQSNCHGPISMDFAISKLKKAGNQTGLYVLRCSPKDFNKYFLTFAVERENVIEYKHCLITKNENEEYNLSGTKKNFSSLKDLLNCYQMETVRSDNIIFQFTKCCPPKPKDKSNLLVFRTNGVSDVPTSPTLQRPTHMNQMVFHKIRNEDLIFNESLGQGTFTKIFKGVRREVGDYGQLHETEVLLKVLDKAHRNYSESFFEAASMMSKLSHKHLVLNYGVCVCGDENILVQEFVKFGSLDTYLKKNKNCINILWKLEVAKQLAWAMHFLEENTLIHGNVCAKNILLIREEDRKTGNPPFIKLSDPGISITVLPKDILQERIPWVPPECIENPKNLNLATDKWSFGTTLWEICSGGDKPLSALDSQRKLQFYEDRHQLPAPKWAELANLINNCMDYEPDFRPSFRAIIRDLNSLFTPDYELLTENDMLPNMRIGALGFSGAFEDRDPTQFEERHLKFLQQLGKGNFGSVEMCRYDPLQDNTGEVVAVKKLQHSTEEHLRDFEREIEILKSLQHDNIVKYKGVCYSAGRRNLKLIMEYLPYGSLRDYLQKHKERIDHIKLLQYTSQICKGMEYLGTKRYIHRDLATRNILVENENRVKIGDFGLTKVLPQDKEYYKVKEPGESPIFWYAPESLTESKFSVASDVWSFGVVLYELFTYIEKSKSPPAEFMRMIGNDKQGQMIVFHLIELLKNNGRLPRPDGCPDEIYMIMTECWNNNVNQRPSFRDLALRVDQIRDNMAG
Sequence of Tyk-2 (P29597 whole entry): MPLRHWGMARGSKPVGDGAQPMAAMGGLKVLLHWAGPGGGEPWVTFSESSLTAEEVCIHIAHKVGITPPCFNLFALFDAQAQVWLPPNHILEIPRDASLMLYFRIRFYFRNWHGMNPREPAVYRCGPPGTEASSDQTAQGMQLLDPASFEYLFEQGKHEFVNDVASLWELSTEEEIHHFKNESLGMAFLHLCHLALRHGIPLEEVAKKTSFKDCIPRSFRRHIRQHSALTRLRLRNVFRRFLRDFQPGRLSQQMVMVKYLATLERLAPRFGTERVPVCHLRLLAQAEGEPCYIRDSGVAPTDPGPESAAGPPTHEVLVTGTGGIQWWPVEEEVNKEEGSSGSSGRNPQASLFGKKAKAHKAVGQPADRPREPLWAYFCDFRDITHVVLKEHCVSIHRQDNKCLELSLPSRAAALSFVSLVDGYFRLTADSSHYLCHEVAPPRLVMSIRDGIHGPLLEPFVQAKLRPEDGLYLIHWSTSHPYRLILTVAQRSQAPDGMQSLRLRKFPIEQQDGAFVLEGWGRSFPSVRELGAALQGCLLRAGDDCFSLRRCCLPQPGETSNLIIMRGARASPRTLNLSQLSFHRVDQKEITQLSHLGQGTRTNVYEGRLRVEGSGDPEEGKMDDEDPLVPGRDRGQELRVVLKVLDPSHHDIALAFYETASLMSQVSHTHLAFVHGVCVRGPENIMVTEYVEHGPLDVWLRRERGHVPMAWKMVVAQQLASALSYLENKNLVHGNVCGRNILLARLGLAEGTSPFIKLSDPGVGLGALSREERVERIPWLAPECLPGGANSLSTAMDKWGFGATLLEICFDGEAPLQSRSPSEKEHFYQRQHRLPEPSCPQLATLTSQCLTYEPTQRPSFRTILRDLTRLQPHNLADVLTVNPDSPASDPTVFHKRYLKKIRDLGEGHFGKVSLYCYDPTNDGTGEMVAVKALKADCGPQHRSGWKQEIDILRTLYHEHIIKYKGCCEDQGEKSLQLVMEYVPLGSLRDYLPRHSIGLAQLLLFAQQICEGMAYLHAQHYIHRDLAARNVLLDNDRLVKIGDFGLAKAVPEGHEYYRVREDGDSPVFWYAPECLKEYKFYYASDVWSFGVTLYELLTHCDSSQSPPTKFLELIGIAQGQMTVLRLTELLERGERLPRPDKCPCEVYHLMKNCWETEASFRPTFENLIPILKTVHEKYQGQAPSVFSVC

IC50 (JAK3 (a.a. 781-1124)) | IC50 [1] | IC50 (JAK1) | IC50 (JAK2) | IC50 [2] | IC50 [3] | IC50 (Tyk-2) | SMILES
≤ 10 nM | ≤ 100 nM | ≤ 10 nM | ≤ 10 nM | ≤ 100 nM | 100 to 1000 nM | ≤ 10 nM | Cc1nccc(-c2cnc3[nH]ccc3c2N[C@@H]2C[C@H](C)CN(C(=O)CC#N)C2)n1 [Example 52, 3-((3S,5R)-3-methyl-5-((5-(2-methylpyrimidin-4-yl)-1H-pyrrolo[2,3-b]pyridin-4-yl)amino)piperidin-1-yl)-3-oxopropanenitrile]
≤ 10 nM | ≤ 100 nM | ≤ 10 nM | ≤ 10 nM | ≤ 100 nM | > 1000 nM | ≤ 10 nM | C[C@H]1C[C@@H](Nc2c(-c3cccc(CO)n3)cnc3[nH]ccc23)CN(C(=O)CC#N)C1 [Example 64, 3-((3R,5S)-3-((5-(6-(hydroxymethyl)pyridin-2-yl)-1H-pyrrolo[2,3-b]pyridin-4-yl)amino)-5-methylpiperidin-1-yl)-3-oxopropanenitrile]
≤ 10 nM | ≤ 100 nM | ≤ 10 nM | ≤ 10 nM | 100 to 1000 nM | > 1000 nM | 10 to 100 nM | N#CCC(=O)N1CCC[C@@H](Nc2c(-c3cccc(CO)n3)cnc3[nH]ccc23)C1 [Example 63]
10 to 100 nM | 100 to 1000 nM | 10 to 100 nM | 10 to 100 nM | > 1000 nM | > 1000 nM | 10 to 100 nM | CS(=O)(=O)c1cnc(-c2cnc3[nH]ccc3c2N[C@@H]2CCCN(CCC#N)C2)s1 [Example 47, (R)-3-(3-((5-(5-(methylsulfonyl)thiazol-2-yl)-1H-pyrrolo[2,3-b]pyridin-4-yl)amino)piperidin-1-yl)propanenitrile]
≤ 10 nM | ≤ 100 nM | ≤ 10 nM | ≤ 10 nM | ≤ 100 nM | 100 to 1000 nM | ≤ 10 nM | CS(=O)(=O)c1cnc(-c2cnc3[nH]ccc3c2N[C@@H]2CCCN(C(=O)CC#N)C2)s1 [Example 46, (R)-3-(3-((5-(5-(methylsulfonyl)thiazol-2-yl)-1H-pyrrolo[2,3-b]pyridin-4-yl)amino)piperidin-1-yl)-3-oxopropanenitrile]
≤ 10 nM | ≤ 100 nM | ≤ 10 nM | ≤ 10 nM | ≤ 100 nM | 100 to 1000 nM | ≤ 10 nM | N#CCC(=O)N1CCC[C@@H](Nc2c(-c3nccs3)cnc3[nH]ccc23)C1 [Example 4, (R)-3-oxo-3-(3-((5-(thiazol-2-yl)-1H-pyrrolo[2,3-b]pyridin-4-yl)amino)piperidin-1-yl)propanenitrile]
≤ 10 nM | ≤ 100 nM | ≤ 10 nM | ≤ 10 nM | ≤ 100 nM | ≤ 100 nM | ≤ 10 nM | C[C@H]1C[C@@H](Nc2c(-c3ccn(C(F)F)n3)cnc3[nH]ccc23)CN(C(=O)CC#N)C1 [Example 40, 3-((3R,5S)-3-((5-(1-(difluoromethyl)-1H-pyrazol-3-yl)-1H-pyrrolo[2,3-b]pyridin-4-yl)amino)-5-methylpiperidin-1-yl)-3-oxopropanenitrile]
≤ 10 nM | ≤ 100 nM | ≤ 10 nM | 10 to 100 nM | ≤ 100 nM | > 1000 nM | 10 to 100 nM | CSc1nccc(-c2cnc3[nH]ccc3c2N[C@@H]2CCCN(C(=O)CC#N)C2)n1 [Example 49, (R)-3-(3-((5-(2-(methylthio)pyrimidin-4-yl)-1H-pyrrolo[2,3-b]pyridin-4-yl)amino)piperidin-1-yl)-3-oxopropanenitrile]
≤ 10 nM | ≤ 100 nM | 10 to 100 nM | 10 to 100 nM | 100 to 1000 nM | > 1000 nM | 100 to 1000 nM | NC(=O)c1coc(-c2cnc3[nH]ccc3c2N[C@H]2CC[C@@H](O)C2)n1 [Example 29, 2-(4-(((1S,3R)-3-hydroxycyclopentyl)amino)-1H-pyrrolo[2,3-b]pyridin-5-yl)oxazole-4-carboxamide]
≤ 10 nM | ≤ 100 nM | ≤ 10 nM | ≤ 10 nM | ≤ 100 nM | ≤ 100 nM | ≤ 10 nM | C[C@H]1C[C@@H](Nc2c(-c3nncs3)cnc3[nH]ccc23)CN(C(=O)CC#N)C1 [Example 68, 3-((3R,5S)-3-((5-(1,3,4-thiadiazol-2-yl)-1H-pyrrolo[2,3-b]pyridin-4-yl)amino)-5-methylpiperidin-1-yl)-3-oxopropanenitrile]
10 to 100 nM | 100 to 1000 nM | 10 to 100 nM | 10 to 100 nM | 100 to 1000 nM | > 1000 nM | 10 to 100 nM | Cc1ccc(-c2cnc3[nH]ccc3c2N[C@@H]2CCCN(C(=O)CC#N)C2)nc1 [Example 22, (R)-3-(3-((5-(5-methylpyridin-2-yl)-1H-pyrrolo[2,3-b]pyridin-4-yl)amino)piperidin-1-yl)-3-oxopropanenitrile]
10 to 100 nM | 100 to 1000 nM | 10 to 100 nM | 10 to 100 nM | 100 to 1000 nM | > 1000 nM | 10 to 100 nM | N#CCC(=O)N1CCC[C@@H](Nc2c(-c3nnco3)cnc3[nH]ccc23)C1 [Example 7, (R)-3-(3-((5-(1,3,4-oxadiazol-2-yl)-1H-pyrrolo[2,3-b]pyridin-4-yl)amino)piperidin-1-yl)-3-oxopropanenitrile]
≤ 10 nM | ≤ 100 nM | ≤ 10 nM | ≤ 10 nM | ≤ 100 nM | 100 to 1000 nM | ≤ 10 nM | C[C@H]1CC[C@@H](Nc2c(-c3ncco3)cnc3[nH]ccc23)CN1C(=O)CC#N [Example 28, 3-((2S,5R)-2-methyl-5-((5-(oxazol-2-yl)-1H-pyrrolo[2,3-b]pyridin-4-yl)amino)piperidin-1-yl)-3-oxopropanenitrile]
10 to 100 nM | 100 to 1000 nM | 10 to 100 nM | 100 to 1000 nM | > 1000 nM | > 1000 nM | 100 to 1000 nM | N#CCC(=O)N1CCC[C@@H](Nc2c(-c3ncccn3)cnc3[nH]ccc23)C1 [Example 23, (R)-3-oxo-3-(3-((5-(pyrimidin-2-yl)-1H-pyrrolo[2,3-b]pyridin-4-yl)amino)piperidin-1-yl)propanenitrile]
≤ 10 nM | ≤ 100 nM | ≤ 10 nM | 10 to 100 nM | 100 to 1000 nM | 100 to 1000 nM | 10 to 100 nM | N#CCC(=O)N1CCC[C@@H](Nc2c(-c3ccn(C(F)F)n3)cnc3[nH]ccc23)C1 [Example 2, (R)-3-(3-((5-(1-(difluoromethyl)-1H-pyrazol-3-yl)-1H-pyrrolo[2,3-b]pyridin-4-yl)amino)piperidin-1-yl)-3-oxopropanenitrile]
